Measured values as given in patent publication US20250361230A1, “LATS Inhibitors and Uses Thereof” (The USA, as Represented by the Secretary, Dept. of Heath …, priority 2022, published 2025).
Where two headings read alike, the source gives them in different places.

Legend:
Format in all cases: biochemical
[1] = target: T1, LATS2 (Homo sapiens, UniProt Q9NRM7); assay: RBC HotSpot kinase assay (33P-ATP, P81 filter-binding), LATS2; conditions: read-out: LATS2 IC50
T1 sequence (Q9NRM7 1-1088): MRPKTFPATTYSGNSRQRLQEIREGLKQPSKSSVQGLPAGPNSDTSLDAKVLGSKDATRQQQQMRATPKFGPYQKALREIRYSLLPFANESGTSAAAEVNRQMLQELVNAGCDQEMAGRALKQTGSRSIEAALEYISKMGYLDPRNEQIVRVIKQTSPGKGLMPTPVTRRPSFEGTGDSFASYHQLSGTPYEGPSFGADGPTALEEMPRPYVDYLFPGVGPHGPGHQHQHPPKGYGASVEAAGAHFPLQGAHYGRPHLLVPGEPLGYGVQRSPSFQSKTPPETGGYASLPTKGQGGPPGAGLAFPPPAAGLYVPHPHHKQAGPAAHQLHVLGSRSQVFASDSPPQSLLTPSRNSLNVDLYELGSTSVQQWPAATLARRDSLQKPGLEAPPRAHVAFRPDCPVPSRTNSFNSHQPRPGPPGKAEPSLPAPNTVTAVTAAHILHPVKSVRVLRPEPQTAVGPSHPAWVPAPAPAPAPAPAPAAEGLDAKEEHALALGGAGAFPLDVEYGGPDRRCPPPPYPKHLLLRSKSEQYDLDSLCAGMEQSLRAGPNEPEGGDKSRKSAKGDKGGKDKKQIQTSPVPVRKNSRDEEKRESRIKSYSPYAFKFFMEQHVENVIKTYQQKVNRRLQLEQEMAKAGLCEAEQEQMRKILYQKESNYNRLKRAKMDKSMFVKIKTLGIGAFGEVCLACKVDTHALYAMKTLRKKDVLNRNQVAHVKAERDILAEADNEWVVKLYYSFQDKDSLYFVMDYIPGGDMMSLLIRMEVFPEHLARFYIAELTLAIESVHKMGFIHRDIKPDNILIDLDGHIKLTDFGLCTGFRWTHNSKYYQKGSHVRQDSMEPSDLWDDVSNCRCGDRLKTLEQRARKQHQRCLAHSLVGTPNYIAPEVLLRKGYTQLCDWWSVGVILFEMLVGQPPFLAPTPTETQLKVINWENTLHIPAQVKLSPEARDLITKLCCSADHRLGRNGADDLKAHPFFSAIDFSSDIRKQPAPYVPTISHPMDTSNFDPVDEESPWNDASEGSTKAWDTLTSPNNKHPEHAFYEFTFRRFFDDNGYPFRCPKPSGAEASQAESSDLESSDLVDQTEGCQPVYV
Summary of the method: (§1)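 Compounds were run as single 10-point titrations to give IC50 values in nM. Each kinase was mixed with substrate and cofactors in 20 mM Hepes pH 7.5 reaction buffer with 1% DMSO, then exposed to compound for 20 min. 33P-ATP was added for a 2 h room-temperature reaction, with activity measured by P81 filter binding.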

[2] = target: AKT (Homo sapiens, UniProt P31749); assay: RBC HotSpot kinase assay (33P-ATP, P81 filter-binding), AKT; conditions: read-out: AKT IC50
Summary of the method: as §1

[3] = target: T2, LATS1 (Homo sapiens, UniProt O95835); assay: RBC HotSpot kinase assay (33P-ATP, P81 filter-binding), LATS1; conditions: read-out: LATS1 IC50
T2 sequence (O95835 1-1130): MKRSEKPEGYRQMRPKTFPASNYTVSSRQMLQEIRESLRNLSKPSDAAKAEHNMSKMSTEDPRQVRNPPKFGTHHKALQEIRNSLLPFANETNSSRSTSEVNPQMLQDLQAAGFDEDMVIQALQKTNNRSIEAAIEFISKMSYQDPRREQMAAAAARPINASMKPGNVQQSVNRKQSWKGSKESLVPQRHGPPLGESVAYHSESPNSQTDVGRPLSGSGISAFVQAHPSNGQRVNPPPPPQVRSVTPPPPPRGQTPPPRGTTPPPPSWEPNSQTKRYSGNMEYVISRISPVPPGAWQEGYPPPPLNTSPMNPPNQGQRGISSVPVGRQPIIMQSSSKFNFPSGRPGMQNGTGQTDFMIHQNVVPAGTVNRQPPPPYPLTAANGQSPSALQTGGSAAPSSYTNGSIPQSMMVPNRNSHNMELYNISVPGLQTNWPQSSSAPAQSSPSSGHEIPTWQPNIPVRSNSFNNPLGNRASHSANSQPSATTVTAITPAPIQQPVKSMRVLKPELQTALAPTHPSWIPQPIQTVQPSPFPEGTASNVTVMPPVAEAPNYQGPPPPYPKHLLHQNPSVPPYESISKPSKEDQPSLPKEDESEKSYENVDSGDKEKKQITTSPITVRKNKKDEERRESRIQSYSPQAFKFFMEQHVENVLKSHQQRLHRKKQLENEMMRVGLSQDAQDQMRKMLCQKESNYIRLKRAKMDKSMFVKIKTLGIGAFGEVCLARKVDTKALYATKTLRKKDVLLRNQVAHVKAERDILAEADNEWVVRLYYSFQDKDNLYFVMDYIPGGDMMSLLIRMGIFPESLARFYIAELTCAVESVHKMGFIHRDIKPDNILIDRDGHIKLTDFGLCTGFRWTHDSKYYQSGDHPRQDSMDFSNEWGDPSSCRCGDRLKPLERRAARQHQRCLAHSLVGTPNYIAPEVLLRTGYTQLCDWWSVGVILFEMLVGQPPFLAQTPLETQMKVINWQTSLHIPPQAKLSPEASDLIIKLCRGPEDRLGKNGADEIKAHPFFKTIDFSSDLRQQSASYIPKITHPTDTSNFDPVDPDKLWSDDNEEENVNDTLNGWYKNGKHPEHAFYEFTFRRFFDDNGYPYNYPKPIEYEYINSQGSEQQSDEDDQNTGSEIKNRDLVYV
Summary of the method: as §1

[4] = Table 28, biochemical kinase assay
[5] = Table 32, biochemical kinase assay

AKT, sequence (P31749 whole entry): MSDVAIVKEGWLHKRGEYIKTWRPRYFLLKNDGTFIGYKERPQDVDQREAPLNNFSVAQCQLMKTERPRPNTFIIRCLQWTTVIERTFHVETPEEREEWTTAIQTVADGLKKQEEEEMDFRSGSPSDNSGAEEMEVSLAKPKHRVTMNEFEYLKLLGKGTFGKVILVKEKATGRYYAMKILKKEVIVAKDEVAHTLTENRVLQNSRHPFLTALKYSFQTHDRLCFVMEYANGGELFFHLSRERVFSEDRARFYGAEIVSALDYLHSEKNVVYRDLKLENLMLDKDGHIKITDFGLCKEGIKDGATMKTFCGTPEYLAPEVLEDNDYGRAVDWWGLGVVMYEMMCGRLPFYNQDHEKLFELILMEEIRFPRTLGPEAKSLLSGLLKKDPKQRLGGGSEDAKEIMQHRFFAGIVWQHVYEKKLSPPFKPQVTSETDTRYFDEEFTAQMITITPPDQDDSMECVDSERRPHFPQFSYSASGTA

SMILES	IC50 [1, 4]	IC50 [2, 4]	IC50 [3, 4]	further results
Cc1cnc(C2(c3ccc(-c4ccnc5[nH]cc(F)c45)cc3)CCNCC2)o1 [Compound 192, 2-(4-(4-(3-fluoro-1H-pyrrolo[2,3-b]pyridin-4-yl)phenyl)piperidin-4-yl)-5-methyloxazole]	0.02 µM	0.025 µM	0.029 µM	–
C[Si](C)(C)CCS(=O)(=O)N1CCC(c2ccc(-c3ccnc4[nH]cc(F)c34)cc2Cl)CC1 [Compound 162, 4-(3-chloro-4-(1-((2-(trimethylsilyl)ethyl)sulfonyl)piperidin-4-yl)phenyl)-3-fluoro-1H-pyrrolo[2,3-b]pyridine]	> 10 µM	> 10 µM	> 10 µM	–
Cc1cc(-c2ccnc3[nH]cc(F)c23)ncc1C1(O)[C@H](C)CN(C2CCS(=O)(=O)CC2)C[C@@H]1C (stereo partly drawn) [Compound 56, 4-((3R,5S)-4-(6-(3-fluoro-1H-pyrrolo[2,3-b]pyridin-4-yl)-4-methylpyridin-3-yl)-4-hydroxy-3,5-dimethylpiperidin-1-yl)tetrahydro-2H-thiopyran 1,1-dioxide]	4.25 µM	> 10 µM	2.08 µM	–
Cc1cc(-c2ccnc3[nH]ccc23)cnc1CN [Compound 252, (3-methyl-5-(1H-pyrrolo[2,3-b]pyridin-4-yl)pyridin-2-yl)methanamine]	0.012 µM	3.16 µM	0.0082 µM	–
Fc1cccc(CNCc2ccc(-c3ccnc4[nH]ccc34)cc2)c1 [Compound 280, N-(4-(1H-pyrrolo[2,3-b]pyridin-4-yl)benzyl)-1-(3-fluorophenyl) methanamine]	0.0256 µM	0.859 µM	0.0108 µM	–
O=C(O)C1(c2ccc(-c3ccnc4[nH]cc(F)c34)cc2)CCNCC1 [Compound 194, 4-(4-(3-fluoro-1H-pyrrolo[2,3-b]pyridin-4-yl)phenyl)piperidine-4-carboxylic acid]	> 10 µM	> 10 µM	> 10 µM	–
NCC(O)(c1ccc(Cl)cc1)c1ccc(-c2ccnc3[nH]cc(-c4ccccc4)c23)nc1 (stereo not drawn) [Compound 1012, 2-amino-1-(4-chlorophenyl)-1-(6-(3-phenyl-1H-pyrrolo[2,3-b]pyridin-4-yl)pyridin-3-yl) ethan-1-ol]	–	–	–	IC50 [1, 5]: 0.0084 µM; IC50 [2, 5]: 0.126 µM; IC50 [3, 5]: 0.0085 µM
Cc1cc(-c2ccnc3[nH]cc(C#N)c23)cc(F)c1[C@@]1(O)[C@H](C)CN(C(=O)[C@@H]2CCCN2)C[C@@H]1C [Compound 2013, 4-(4-((3S,4S,5R)-1-(L-prolyl)-4-hydroxy-3,5-dimethylpiperidin-4-yl)-3-fluoro-5-methylphenyl)-1H-pyrrolo[2,3-b]pyridine-3-carbonitrile]	–	–	–	IC50 ([1]; biochemical kinase inhibition): 0.0029 µM; IC50 ([2]; biochemical kinase inhibition): 0.33 µM; IC50 ([3]; biochemical kinase inhibition): 0.0057 µM
OC1(c2ccc(-c3ccnc4[nH]cc(F)c34)cc2)C[C@H]2CC[C@@H](C1)N2 (stereo partly drawn) [Compound 114, (1R,5S)-3-(4-(3-fluoro-1H-pyrrolo[2,3-b]pyridin-4-yl)phenyl)-8-azabicyclo[3.2.1]octan-3-ol]	0.019 µM	0.39 µM	0.023 µM	–
CC1CNCCC1(O)c1ccc(-c2ccnc3[nH]cc(F)c23)cc1Cl (stereo not drawn) [Compound 99, 4-(2-chloro-4-(3-fluoro-1H-pyrrolo[2,3-b]pyridin-4-yl)phenyl)-3-methylpiperidin-4-ol]	0.0062 µM	0.219 µM	0.0106 µM	–
CC(C)(N)C(=O)NCC(O)(c1ccc(Cl)cc1)c1ccc(-c2ccnc3[nH]ccc23)cc1 (stereo not drawn) [Compound 1028, N-(2-(4-(1H-pyrrolo[2,3-b]pyridin-4-yl)phenyl)-2-(4-chlorophenyl)-2-hydroxyethyl)-2-amino-2-methylpropanamide]	–	–	–	IC50 [1, 5]: 0.0024 µM; IC50 [2, 5]: 0.0019 µM; IC50 [3, 5]: 0.0019 µM
CC(=O)N1C[C@@H](C)[C@](O)(c2c(C)cc(-c3ccnc4[nH]cc(F)c34)cc2F)[C@@H](C)C1 [Compound 95, 1-((3S,5R)-4-(2-fluoro-4-(3-fluoro-1H-pyrrolo[2,3-b]pyridin-4-yl)-6-methylphenyl)-4-hydroxy-3,5-dimethylpiperidin-1-yl)ethan-1-one]	0.0048 µM	2.62 µM	0.0069 µM	–
COC(=O)c1c[nH]c2nccc(-c3ccc([C@@]4(O)[C@H](C)CNC[C@@H]4C)c(C)c3)c12 [Compound 300, methyl 4-(4-((3S,4s,5R)-4-hydroxy-3,5-dimethylpiperidin-4-yl)-3-methylphenyl)-1H-pyrrolo[2,3-b]pyridine-3-carboxylate]	0.0016 µM	0.282 µM	0.0032 µM	–
Cc1nc(-c2ccnc3[nH]cc(F)c23)ccc1C1(O)[C@H](C)CN(C(=O)CN)C[C@@H]1C (stereo partly drawn) [Compound 76, 2-amino-1-((3S,5R)-4-(6-(3-fluoro-1H-pyrrolo[2,3-b]pyridin-4-yl)-2-methylpyridin-3-yl)-4-hydroxy-3,5-dimethylpiperidin-1-yl)ethan-1-one]	0.0189 µM	1.72 µM	0.0298 µM	–
OC1(c2ccc(-c3ccnc4[nH]cc(F)c34)cc2Cl)CCNCC1 [Compound 97, 4-(2-chloro-4-(3-fluoro-1H-pyrrolo[2,3-b]pyridin-4-yl)phenyl)piperidin-4-ol]	0.0428 µM	0.712 µM	0.0114 µM	–
C[C@@H]1CN(C(=O)[C@H]2CCCN2)C[C@H](C)C1(O)c1c(F)cc(-c2ccnc3[nH]cc(F)c23)cc1F (stereo partly drawn) [Compound 85, 4-(4-((3S,5R)-1-(D-prolyl)-4-hydroxy-3,5-dimethylpiperidin-4-yl)-3,5-difluorophenyl)-3-fluoro-1H-pyrrolo[2,3-b]pyridine]	0.0047 µM	0.659 µM	0.0058 µM	–
